Experimental data as given in patent US9802902B2, “Antifungal compound” (priority 2012, dated 2017).

Experiments:
C. albicans keratitis = assay: Contact lens-associated C. albicans keratitis model in mouse; type: in vivo; conditions: 1000 μg/mL topical eye drops; for corneal counts of C. albicans: 6 eyeballs homogenized; for clinical score (slit lamp, grade 0-4): after treatment, ± standard deviation
Excerpt: 8-week-old adult C57BL/6 mice (18-22 g) were used for animal studies. All mice eyes were examined for absence of ocular pathology before experiments were initiated. The experimental protocol was approved by the Institutional Animal Care and Use Committee of Biological Resource Centre, Agency for Science, Technology and Research (A*STAR), Singapore.
The black mouse keratitis model was established by employing contact lens biofilm infection, which is described as follows. The mice were anesthetized by ketamine (150 mg/kg) and xylazine ([…]) via intraperitoneal injection (I.P.). Additional topical anesthetic in the form of 0.5% tetracaine hydrochloride eye drops (Bausch & Lomb, Tampa, Fla.) was also administered.
A total of 45 mice were used in this study. A 1-mm filter paper disc moistened with 99% 1-heptanol (Sigma-Aldrich, Lausanne, Switzerland) was placed on the center of the cornea for 40 seconds. The corneal epithelium was traumatically wiped out and the eyes were rinsed with PBS to remove any remaining traces of 1-heptanol. A 2 mm-diameter punch from the contact lense with C. albicans biofilm was then placed on the denuded cornea surface. The contact lenses were kept inside the eyes by closing the eye lids with silk sutures. The C. albicans cells were grown on the eyeball 18 hours after inoculation; eye ulcer with a leathery, tough, raised surface was observed. A disease grading from 0 (no disease) to 4 (severe disease) was established for evaluating treatment efficacy (see Table 1 below). The mice were immune suppressed by subcutaneous injection of cyclophosphamide (Sigma-Aldrich, […]).
To investigate the potential application of these two compounds in fungi keratitis treatment, C. albicans keratitis model was established using mouse. The contact lenses with C. albicans biofilm were kept inside the mice eyes by closing the lids with silk sutures. 18 hours after inoculation, the C. albicans cells were grown on the eyeball. Eye ulcer with a leathery, tough, raised surface was observed. The animals were randomly treated with 5 topical eye drop solutions: saline solution (control), 1000 μg/mL of PIM-45, 1000 μg/mL of IBN-1, 1000 μg/mL of amphotericin B, and 1000 μg/mL of fluconazole. Eye drops (20 μl each) were administered to the mice every 5 minutes during the first hour and every 30 minutes during the next 7 hours. After a pause of 16 hours, eye drops were administered at hourly intervals for another 8 hours. All mice were sacrificed 16 hours after the administration of the last eye drop. The treated eyeballs were collected immediately; three eyeballs from each group were collected for histology, and the remaining 6 eyeballs were homogenized for quantitative fungal recovery study. The fixed eyeballs were embedded in paraffin, sectioned and stained with Grocott's methenamine silver by standard protocol.

[1] = system: C. albicans biofilms supported on contact lenses; assay: Biofilm susceptibility (in vitro keratitis model treatment); type: cell-based, Candida albicans
Experimental: The contact lenses were washed with PBS and immersed in YM broth overnight before they were punched into smaller pieces of 2 mm in diameter. To grow C. albicans biofilms, the lenses were placed in 6-well tissue culture plates with 4 mL of yeast suspension (10^7 CFU/mL) and incubated for 3 hours at 22° C. The contact lenses were gently washed with PBS to remove non-adherent yeast cells and immersed in YM broth for 48 hours at 22° C. with shaking at 100 rpm. Biofilms were quantified using direct plate counting. The yeast cells on contact lens were detached and dispersed in PBS by ultrasonication for 3 minutes. After making 10-fold dilutions, 20-μL sampling aliquots were plated on solid Lysogeny broth (LB) plate and incubated at 22° C. for 48 hours before the colony number was counted for determination of surviving CFU. Data from triplicate plate counts were averaged.
The C. albicans biofilms supported on contact lenses were transferred to fungicidal agent-containing PBS, and incubated at 22° C. for 24 hours. The biofilms were ultrasonicated for 3 minutes, and then serially diluted in PBS. The viable yeast cells were enumerated as described above.

| Structure (SMILES) | hyphal invasion into cornea (histology) (C. albicans keratitis) | corneal counts of C. albicans (C. albicans keratitis) | clinical score (slit lamp, grade 0-4) (C. albicans keratitis) | effective concentration in killing biofilm-grown yeast cells ([1]; C. albicans biofilm on contact lens, PBS, 22° C., 24 hours) | destruction of C. albicans biofilm ([1]; at 250 ppm) |
| --- | --- | --- | --- | --- | --- |
| C[C@@H]1[C@H](O)[C@@H](C)/C=C/C=C/C=C/C=C/C=C/C=C/C=C/[C@H](O[C@@H]2O[C@H](C)[C@@H](O)[C@H](N)[C@@H]2O)C[C@@H]2O[C@](O)(C[C@@H](O)C[C@@H](O)[C@H](O)CC[C@@H](O)C[C@@H](O)CC(=O)O[C@H]1C)C[C@H](O)[C@H]2C(=O)O [amphotericin B] | reduced the maximal depth of hyphal invasion into cornea | 3.3 lg CFU/eye | 2.2±0.4 | 250 ppm | – |
| OC(Cn1cncn1)(Cn1cncn1)c1ccc(F)cc1F [fluconazole] | fungal hyphae extended through the epithelium and into the anterior stroma | 5.1 lg CFU/eye | 3.5±0.5 | – | only slightly destroyed |
